Measurements reported in patent US12448366B2, “Solid forms of pralsetinib” (Rigel Pharmaceuticals, Inc., priority 2020, dated 2025).
≈ marks a conversion by molar mass, not a printed value. Like-named read-outs stand apart in the source and are kept apart here.

What was measured:
RET = conditions: patients with RET-altered NSCLC and MTC; cited from earlier work
[1] = Dynamic vapor sorption (DVS); format: physicochemical; conditions: for hygroscopicity (words): DVS; for XRPD / form stability after DVS humidity cycling: XRPD before and after DVS; for total mass change by DVS: between 2% and 95% relative humidity; for DVS Mass Change: glutarate and succinate: between 2% and 90% relative humidity
Method: Dynamic Vapor Sorption (DVS) was done using a DVS Intrinsic 1. The sample is loaded into a sample pan and suspended from a microbalance. A typical sample mass for DVS measurement is 25 mg. Nitrogen gas bubbled through distilled water provides the desired relative humidity. A typical measurement comprises the steps: • 1—Equilibrate at 50% RH • 2—50% to 2%. (50%, 40%, 30%, 20%, 10% and 2%) • a. Hold minimum of 5 mins and maximum of 60 minutes at each humidity. The pass criteria is less than 0.002% change • 3—2% to 95% (2%, 10%, 20%, 30%, 40%, 50%, 60%, 70%, 80%, 90%, 95%) • a. Hold minimum of 5 mins and maximum of 60 minutes at each humidity. The pass criteria is less than 0.002% change • 4—95% to 2% (95%, 80%, 70%, 60%, 50%, 40%, 30%, 20%, 10%, 2%) • a. Hold minimum of 5 mins and maximum of 60 minutes at each humidity. The pass criteria is less than 0.002% change • 5—2% to 50% (2%, 10%, 20%, 30%, 40%, 50%) • a. Hold minimum of 5 mins and maximum of 60 minutes at each humidity. The pass criteria is less than 0.002% change High Pressure Liquid Chromatography (HPLC)
Dynamic Vapor Sorption (DVS) was performed using a DVS Intrinsic 1. The samples (12-31 mg) was loaded into a sample pan, suspended from a microbalance and exposed to a humidified stream of nitrogen gas. The sample was held for a minimum of 5 min at each level and only progressed to the next humidity level if there was <0.002% change in weight between measurements (interval: 60 seconds) or 240 min had elapsed. The following program was used: • 1—Equilibration at 50% RH • 2—50% to 2%. (50%, 40%, 30%, 20%, 10% and 2%) • 3—2% to 95% (2%, 10%, 20%, 30%, 40%, 50%, 60%, 70%, 80%, 90%, 95%) • 4—95% to 2% (95%, 80%, 70%, 60%, 50%, 40%, 30%, 20%, 10%, 2%) • 5—2% to 50% (2%, 10%, 20%, 30%, 40%, 50%) High Performance Liquid Chromatography (HPLC)

[2] = Humidity exposure, 75% relative humidity at 40° C. for one week, XRPD; format: physicochemical; conditions: for stability on exposure to 75% relative humidity at 40° C.: one week / 7 days, XRPD; for Stability 40° C./75% RH: XRPD pattern after exposure
[3] = Solubility in water and simulated fluids (fasted/fed state simulated intestinal fluid, fasted state simulated gastric fluid); format: physicochemical
[4] = Competitive slurry experiments between free base solid forms; format: physicochemical; conditions: for competitive slurry in methanol:water: high ratios of water to methanol and lower temperatures
[5] = Thermal treatment in DSC followed by XRPD (Example 2G); format: physicochemical
Excerpt: Select solids were used for thermal treatment in DSC. Solids were heated to specified temperature and then cooled back to room temperature for analysis by XRPD.

[6] = Qualitative water solubility of salts (salt screen); format: physicochemical
[7] = Salt screening: XRPD of wet cake, after drying under vacuum at 50° C., after exposure to 97% relative humidity; format: physicochemical; conditions: XRPD; for stability of salt solid form to humidification: 97% (>95%) relative humidity; for stability of salt solid form to drying: vacuum at 50° C.
Method: Stock solutions of counter-ion were prepared in EtOH, MeOH, or EtOAc, depending on solubility. […] The solvent was allowed to evaporate at room temperature over the weekend and then placed at 50° C. under vacuum for 3 hours to remove any remaining solvent. Approximately 25 volumes solvent (0.6 mL) was added to each vial for screening. The three solvents selected were EtOH, EtOAc, and IPA:water (9:1 vol). […] XRPD analysis was done in three stages. XRPD of the wet cake was done for all samples. Unique solids were then left on XRPD plates and dried under vacuum at 50° C. XRPD of unique dry solids was then done. […] The humid environment was generated by placing a beaker of saturated potassium sulfate in water in a sealed container. All XRPD patterns were compared to counter ion XRPD patterns and known free base patterns. Where solids were not of sufficient quantity to isolate, the solvent was evaporated at room temperature, the material dried at 50° C. under active vacuum for 3 hours, and then reslurried at room temperature in either MtBE or IPAc overnight after heating to 45° C. for 30 minutes.

[8] = One week (7 days) slurry stability by XRPD and HPLC; format: physicochemical; conditions: XRPD and HPLC, listed as solid form 11-A
[9] = DSC and TGA/DSC thermal analysis; format: physicochemical
Method: Differential scanning calorimetry was done using a Mettler Toledo DSC3+. The desired amount of sample is weighed directly in a hermetic aluminum pan with pin-hole. A typical sample mass for is 3-5 mg. A typical temperature range is 30° C. to 300° C. at a heating rate of 10° C. per minute (total time of 27 minutes). Typical parameters for DSC are listed below.
Thermogravimetric analysis and differential scanning calorimetry was done using a Mettler Toledo TGA/DSC3+. The desired amount of sample is weighed directly in a hermetic aluminum pan with pin-hole. A typical sample mass for the measurement is 5-10 mg. A typical temperature range is 30° C. to 300° C. at a heating rate of 10° C. per minute (total time of 27 minutes). Protective and purge gasses are nitrogen (20-30 mL/min and 50-100 mL/min). Typical parameters for DSC/TGA are listed below.
Differential scanning calorimetry was performed using a Mettler Toledo DSC3+. The sample (3-5 mg) was weighed directly in a 40 μL hermetic aluminum pan with pin-hole and analyzed according to the parameters below:
Thermogravimetric analysis and differential scanning calorimetry were performed on the same sample simultaneously using a Mettler Toledo TGA/DSC3+. […] The desired amount of sample (5-10 mg) was weighed directly in a hermetic aluminum pan with pin-hole and analyzed according to the parameters below: […]

CO[C@]1(C(=O)N[C@@H](C)c2ccc(-n3cc(F)cn3)nc2)CC[C@H](c2nc(C)cc(Nc3cc(C)[nH]n3)n2)CC1 [Compound (I), (cis)-N-((S)-1-(6-(4-fluoro-1H-pyrazol-1-yl)pyridin-3-yl)ethyl)-1-methoxy-4-(4 methyl-6-(5-methyl-1H-pyrazol-3-ylamino)pyrimidin-2-yl)cyclohexanecarboxamide]
RET signaling (RET): attenuated
clinical responses (RET): durable clinical responses
off target toxicity (RET): without notable off target toxicity

CO[C@]1(C(=O)N[C@@H](C)c2ccc(-n3cc(F)cn3)nc2)CC[C@H](c2nc(C)cc(Nc3cc(C)[nH]n3)n2)CC1 [Solid Form A, pralsetinib]
reversibility of the DVS mass change [1]: reversible
share of the DVS mass change occurring above 70% relative humidity [1]: 80%
share of the DVS mass change occurring above 80% relative humidity [1]: 70%
hygroscopicity (words) [1]: hygroscopic
hygroscopicity (words) ([1]; listed as solid form A): hygroscopic
DVS Water Mass Change (wt. %) ([1]; Table 3E, listed as Pattern A): 10.2 wt. %
XRPD / form stability after DVS humidity cycling [1]: stable
XRPD / form stability after DVS humidity cycling ([1]; listed as solid form A): Pattern A
total mass change by DVS [1]: 10.2 wt. %
reversible mass change by DVS ([1]; between 2-95% relative humidity): about 10%
water mass gained by dynamic vapor sorption ([1]; between 2 and 95% relative humidity at 25° C.): 10%
water pick-up ([1]; between 15 to 75% relative humidity): about 2%
conversion to hydrate Solid Form C on prolonged / high humidity exposure [2]: did not convert to Solid Form C
stability on exposure to 75% relative humidity at 40° C. [2]: stable
stability on exposure to 75% relative humidity at 40° C. ([2]; listed as Pattern A): remained unchanged
solubility in simulated gastric fluid [3]: high solubility
solubility in simulated intestinal fluid [3]: low solubility
solubility in water [3]: low solubility
competitive slurry in methanol:water [4]: converted to Solid Form C
competitive slurry in methanol:water ([4]; listed as Pattern A): converted to a praletinib free base material characterized by XRPD Pattern C
Competitive slurry MeOH: water (1:1 vol) at 23 and 50° C. ([4]; listed as Pattern A): A converts to C
Competitive slurry isopropanol, MeOH:MtBE ([4]; listed as Pattern A): A stable
solid form after a hold at the melting point [5]: did not convert to material with XRPD Pattern H

CO[C@]1(C(=O)N[C@@H](C)c2ccc(-n3cc(F)cn3)nc2)CC[C@H](c2nc(C)cc(Nc3cc(C)[nH]n3)n2)CC1 [Solid Form F, pralsetinib]
solid form after heating to 140° C. ([5]; 140° C.): converted to solid form B

CO[C@]1(C(=O)N[C@@H](C)c2ccc(-n3cc(F)cn3)nc2)CC[C@H](c2nc(C)cc(Nc3cc(C)[nH]n3)n2)CC1 [Solid Form 12-A, pralsetinib]
qualitative water solubility [6]: low
stability of salt solid form to humidification ([7]; listed as Pattern 12-A): stable
stability of salt solid form to drying ([7]; listed as Pattern 12-A): stable

CO[C@]1(C(=O)N[C@@H](C)c2ccc(-n3cc(F)cn3)nc2)CC[C@H](c2nc(C)cc(Nc3cc(C)[nH]n3)n2)CC1 [Solid Form B, pralsetinib]
total mass change by DVS [1]: 1.4 wt. %
conversion to hydrate Solid Form C on prolonged / high humidity exposure ([2]; listed as Pattern B): not observed to convert back to hydrate XRPD Pattern C
stability on exposure to 75% relative humidity at 40° C. ([2]; listed as Pattern B): remained unchanged
solid form after heating to 190° C. ([5]; 190° C.): converted to solid form A

CO[C@]1(C(=O)N[C@@H](C)c2ccc(-n3cc(F)cn3)nc2)CC[C@H](c2nc(C)cc(Nc3cc(C)[nH]n3)n2)CC1 [Solid Form 10-A, pralsetinib]
qualitative water solubility ([6]; listed as salicylate 10-A): low solubility
stability of salt solid form to humidification ([7]; listed as 10-A): stable
stability of salt solid form to drying ([7]; listed as 10-A): stable

CO[C@]1(C(=O)N[C@@H](C)c2ccc(-n3cc(F)cn3)nc2)CC[C@H](c2nc(C)cc(Nc3cc(C)[nH]n3)n2)CC1 [Solid Form 11-A, pralsetinib]
mass change by DVS ([1]; between 2% and 90% relative humidity, listed as solid form 11-A): 0.48 wt. %
mass change by DVS ([1]; between 15% and 75% relative humidity, listed as solid form 11-A): 0.27 wt. %
DVS Mass Change ([1]; listed as Glutarate 11-A): 0.48 wt. %
reversibility of the DVS mass change ([1]; listed as solid form 11-A): appears to be reversible
Stability 40° C./75% RH ([2]; listed as Glutarate 11-A): Stable
solubility ([3]; water, room temperature, read-out: water solubility at room temperature): 240 µg/mL (≈ 450 µM)
stability slurrying 7 days in EtOAc ([8]; EtOAc): converted to a solid form designated as solid form 11-B
stability slurrying 7 days in EtOH ([8]; EtOH): converted to a solid form designated as solid form 11-B
stability of salt solid form to humidification ([7]; listed as Pattern 11-A): stable
stability of salt solid form to humidification ([7]; listed as glutarate 11-A): stable
stability of salt solid form to humidification ([7]; listed as solid form 11-A): stable
stability of salt solid form to drying ([7]; listed as Pattern 11-A): stable
stability of salt solid form to drying ([7]; listed as glutarate 11-A): stable
stability of salt solid form to drying ([7]; listed as solid form 11-A): stable
Endotherm Onset ([9]; listed as Glutarate 11-A): 177.8 °C

CO[C@]1(C(=O)N[C@@H](C)c2ccc(-n3cc(F)cn3)nc2)CC[C@H](c2nc(C)cc(Nc3cc(C)[nH]n3)n2)CC1 [freebase (Pattern FB-A)]
DVS Mass Change [1]: 10.2 wt. %
Stability 40° C./75% RH [2]: Stable
Endotherm Onset, event marked (exo) ([9]; exotherm): 162.7 (exo) ° C.
